For four compounds, IC50 and viability, T/C results are on record in PubChem BioAssay AID2060336 (Molecular Pharmacology Branch, DTP, NCI, 2025).

This assay relates to 958767-090-R-J1-PDC spheroid growth. Kind of assay: Anticancer human tumor 958767-090-R-J1-PDC patient-derived head and neck squamous carcinoma cell line growth inhibition [IpAb]. The conditions noted are these: spheroids with HUVEC and MSC; for viability, T/C: stronger effect = lower value. A digest of the protocol: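 Spheroids of 60% malignant cells, 25% HUVEC and 15% MSC were exposed to targeted agents combined with ipatasertib or abemaciclib. Doses started at or near clinical Cmax (10 microM when unknown) and fell in half-log steps.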

The mark [1] stands for this setting: curve of first compound, second compound 0.1 µM.
[2] abbreviates: curve of first compound, second compound 0.316 µM.
[3] abbreviates: curve of first compound, second compound 1 µM.
[4] abbreviates: curve of first compound, second compound 3.16 µM.
[5] abbreviates: curve of first compound, second compound 10 µM.
Where [6] appears, read: second compound 0.1 µM, first compound 0.00949 µM.
[7] abbreviates: second compound 0.1 µM, first compound 0.03 µM.
The mark [8] stands for this setting: second compound 0.1 µM, first compound 0.0949 µM.
Where [9] appears, read: second compound 0.1 µM, first compound 0.3 µM.
The mark [10] stands for this setting: second compound 0.316 µM, first compound 0.00949 µM.
[11] abbreviates: second compound 0.316 µM, first compound 0.03 µM.
The mark [12] stands for this setting: second compound 0.316 µM, first compound 0.0949 µM.
The mark [13] stands for this setting: second compound 0.316 µM, first compound 0.3 µM.
Where [14] appears, read: second compound 1 µM, first compound 0.00949 µM.
Where [15] appears, read: second compound 1 µM, first compound 0.03 µM.
Setting [16] is: second compound 1 µM, first compound 0.0949 µM.
[17] abbreviates: second compound 1 µM, first compound 0.3 µM.
Setting [18] is: second compound 3.16 µM, first compound 0.00949 µM.
Setting [19] is: second compound 3.16 µM, first compound 0.03 µM.
Where [20] appears, read: second compound 3.16 µM, first compound 0.0949 µM.
The mark [21] stands for this setting: second compound 3.16 µM, first compound 0.3 µM.
[22] abbreviates: second compound 10 µM, first compound 0.00949 µM.
Where [23] appears, read: second compound 10 µM, first compound 0.03 µM.
Where [24] appears, read: second compound 10 µM, first compound 0.0949 µM.
The mark [25] stands for this setting: second compound 10 µM, first compound 0.3 µM.

Values joined by “and” are separate entries in the source; they are usually repeats but may differ in a detail not shown here. Identical values can stand only once.
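For viability, T/C in this document: 100% = DMSO vehicle control wells.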

A word on the IC50: it is the concentration that inhibits the measured activity by half. A word on the viability, T/C: it is the result in the treated group divided by that in the control group, in per cent. Take `CC(C)(C)c1cnc(CSc2cnc(NC(=O)C3CCNCC3)s2)o1` + CC(C)NCC(C(=O)N1CCN(c2ncnc3c2C(C)CC3O)CC1)c1ccc(Cl)cc1: the IC50 was determined as 119 nM under setting [1]; 115 nM under setting [2]; 95.7 nM under setting [3]; 101 nM under setting [4]; 41 nM under setting [5]. The viability, T/C is, setting by setting: under setting [6], 98.5%; under setting [7], 95.1%; under setting [8], 61.2%; under setting [9], 3.88%; (second compound 0.1 µM, first compound 0.949 µM) 2.72%; (second compound 0.1 µM, first compound 3 µM) 2.41%. In addition, the viability, T/C runs as follows: under setting [10], 80.6%; under setting [11], 82.5%; under setting [12], 59.5%; under setting [13], 2.24%; (second compound 0.316 µM, first compound 0.949 µM) 2.31%; (second compound 0.316 µM, first compound 3 µM) 2.18%. Also, the viability, T/C runs as follows: under setting [14], 72%; under setting [15], 68%; under setting [16], 50.4%; under setting [17], 1.77%; (second compound 1 µM, first compound 0.949 µM) 1.65%; (second compound 1 µM, first compound 3 µM) 2.3%. For the same compound, the viability, T/C by setting is: under setting [18], 63.6%; under setting [19], 62.9%; under setting [20], 52.6%; under setting [21], 1.26%; (second compound 3.16 µM, first compound 0.949 µM) 1.8%; (second compound 3.16 µM, first compound 3 µM) 1.85%. Besides, the viability, T/C is 52.6% under setting [22]; 68.9% under setting [23]; 21.1% under setting [24]; 1.62% under setting [25]; 1.38% (second compound 10 µM, first compound 0.949 µM); 1.87% (second compound 10 µM, first compound 3 µM).

Regarding `Cc1nc(NC(=O)N2CCCC2C(N)=O)sc1-c1ccnc(C(C)(C)C(F)(F)F)c1` (centres undefined), the viability, T/C was 85.3% and 75% (compound 0.0316 µM); 68.5% and 71.4% (compound 0.1 µM); 48.5% and 42.7% (compound 0.316 µM); 32.3% and 36.4% (compound 1 µM); 22.2% and 22.6% (compound 3.16 µM); 9.48% and 9.72% (compound 10 µM). The IC50 (curve of compound) is 304 nM and 311 nM.

Regarding `CCCS(=O)(=O)Nc1ccc(F)c(C(=O)c2c[nH]c3ncc(-c4ccc(Cl)cc4)cc23)c1F`, the viability, T/C reads like this: (compound 0.0316 µM) 86.3% and 103%; (compound 0.1 µM) 93.5% and 92.7%; (compound 0.316 µM) 92.7% and 98.5%; (compound 1 µM) 94.9% and 96%; (compound 3.16 µM) 98.5% and 96.4%; (compound 10 µM) 65.5% and 66.7%. For the setting “curve of compound”, the IC50 was greater than 10000 nM.

Take `CC(=O)c1c(C)c2cnc(Nc3ccc(N4CCNCC4)cn3)nc2n(C2CCCC2)c1=O` + CC(C)NCC(C(=O)N1CCN(c2ncnc3c2C(C)CC3O)CC1)c1ccc(Cl)cc1: the IC50 is greater than 300 nM under setting [1]; 300 nM under setting [2]; less than 0.949 nM under setting [3]; less than 0.949 nM under setting [4]; less than 0.949 nM under setting [5]. In addition, the viability, T/C reads like this: (second compound 0.1 µM, first compound 0.000949 µM) 83.8%; (second compound 0.1 µM, first compound 0.003 µM) 70.5%; under setting [6], 68.7%; under setting [7], 67.7%; under setting [8], 53.4%; under setting [9], 64.8%. The viability, T/C (second compound 0.316 µM, first compound 0.000949 µM) was 56.4%; the viability, T/C (second compound 0.316 µM, first compound 0.003 µM) was 65.3%; the viability, T/C under setting [10] is 54.2%; the viability, T/C under setting [11] was 46.1%; the viability, T/C under setting [12] is 57.3%; the viability, T/C under setting [13] was 52.5%. For the same compound, the viability, T/C (second compound 1 µM, first compound 0.000949 µM) was 48.1%; the viability, T/C (second compound 1 µM, first compound 0.003 µM) was 46.2%; the viability, T/C under setting [14] is 49.8%; the viability, T/C under setting [15] is 41.8%; the viability, T/C under setting [16] is 47.2%; the viability, T/C under setting [17] is 40.2%. In addition, the viability, T/C (second compound 3.16 µM, first compound 0.000949 µM) is 43.1%; the viability, T/C (second compound 3.16 µM, first compound 0.003 µM) was 43.6%; the viability, T/C under setting [18] is 39.1%; the viability, T/C under setting [19] is 41.5%; the viability, T/C under setting [20] is 37.7%; the viability, T/C under setting [21] is 31.2%. The viability, T/C was 41.4% (second compound 10 µM, first compound 0.000949 µM); 41.7% (second compound 10 µM, first compound 0.003 µM); 42.9% under setting [22]; 35.5% under setting [23]; 30.7% under setting [24]; 25% under setting [25].
